Columns and labels:
[1] = target: CYP3A4 (Homo sapiens, UniProt P08684); assay: Example 2 Part D: effect of tucatinib on PK of substrate probe midazolam; conditions: steady-state tucatinib in combination with tolbutamide/midazolam vs tolbutamide/midazolam alone
Protocol: (§1) A Phase 1, open-label, fixed-sequence, 5-part, drug-drug interaction study of tucatinib was conducted to evaluate the effects of CYP3A4 and CYP2C8 inhibition and induction on the pharmacokinetics of tucatinib and to evaluate the effects of tucatinib on the pharmacokinetics of substrates of CYP3A4, CYP2C8, CYP2C9, and P-glycoprotein in healthy male and female subjects.
(§2) Part B evaluates the effect of rifampin, a strong inducer of CYP3A4 and CYP2C8, on the PK of tucatinib. […] Part E evaluates the effect of tucatinib on the PK of a substrate probe of the transporter P-gp (digoxin). […] For Parts A, B, and C, tucatinib is given as a single oral dose because evaluating plasma exposures after a single dose of tucatinib is expected to provide an appropriate assessment of the impact of the probe drugs on tucatinib PK. In Parts D and E, tucatinib is given as a multiple-dosing regimen in order to examine its effects on probe drugs at steady state, at which maximal inhibition of CYP2C8, CYP2C9, CYP3A4, and P-gp by tucatinib should be achieved.
(§3) Secondary objectives of the study included: (1) assessing the safety and tolerability of tucatinib when administered alone and when co-administered with substrate probes of CYP2C8, CYP2C9, and CYP3A4; and (2) assessing the single-dose PK of tucatinib and assessing the multiple-dose, steady-state PK of tucatinib alone and in the presence of substrate probes of CYP2C8, CYP2C9, and CYP3A4 in healthy subjects.
(§4) They were discharged on Day 14 after completion of the in-patient assessments.
(§5) On Day 1, each subject received a single oral dose of 0.5 mg of repaglinide. […] From Day 4 to Day 13, each subject received oral doses of 300 mg of tucatinib, twice daily (BID). On Day 11, each subject received a single oral dose of repaglinide. […] Tucatinib was provided as 150-mg tablets (2 tablets for the 300-mg dose), repaglinide was provided as 0.5-mg tablets, olbutamide was provided as 500-mg tablets, and midazolam was provided as a syrup (2 mg/mL; 1 mL syrup for the 2-mg dose). Tucatinib, repaglinide, olbutamide and midazolam were administered before meals preceded by an at least 8-hour overnight fast.
(§6) Other noncompartmental PK parameters may be reported. Additionally, blood samples for determination of plasma concentrations of tucatinib and ONT-993 were collected at the time points indicated in FIG. 8. […] A single genotyping blood sample was collected to assess possible effect of CYP polymorphisms or other genetic polymorphisms on the magnitude of drug interactions of tucatinib with probe drugs and substrates.

[2] = target: CYP2C9 (Homo sapiens, UniProt P11712); assay: Example 2 Part D: effect of tucatinib on PK of substrate probe tolbutamide; conditions: tolbutamide/midazolam in combination with steady-state tucatinib vs tolbutamide/midazolam alone
Protocol: as §1, §2, §3, §4
as §5, with “Tucatinib, repaglinide, olbutamide and midazolam were administered before meals preceded by an at least 8-hour overnight fast.” left out

[3] = target: P-gp (Homo sapiens, UniProt P08183); assay: Example 2 Part E: effect of tucatinib on PK of substrate probe digoxin; conditions: digoxin in combination with steady-state tucatinib vs digoxin alone
Protocol: as §1, §2
A single genotyping blood sample was collected to assess possible effect of CYP polymorphisms or other genetic polymorphisms on the magnitude of drug interactions of tucatinib with probe drugs and substrates.

[4] = Example 1: renal function (iohexol aGFR, serum creatinine, urine albumin); type: in vivo, human
[5] = tested on: MATE1/2K; assay: Phase 1 drug-drug interaction study: effect of tucatinib on metformin pharmacokinetics (Example 1)
[6] = tested on: MATE1/2K; assay: clinical; conditions: both, human, plasma
[7] = target: T1, CYP2C8 (Homo sapiens, UniProt P10632); assay: Example 2 Part D: effect of tucatinib on PK of substrate probe repaglinide; type: in vivo; parameters: endogenous in cells; host or cells: healthy human subjects, in vivo; conditions: repaglinide in combination with steady-state tucatinib vs repaglinide alone
T1 sequence (P10632 1-490): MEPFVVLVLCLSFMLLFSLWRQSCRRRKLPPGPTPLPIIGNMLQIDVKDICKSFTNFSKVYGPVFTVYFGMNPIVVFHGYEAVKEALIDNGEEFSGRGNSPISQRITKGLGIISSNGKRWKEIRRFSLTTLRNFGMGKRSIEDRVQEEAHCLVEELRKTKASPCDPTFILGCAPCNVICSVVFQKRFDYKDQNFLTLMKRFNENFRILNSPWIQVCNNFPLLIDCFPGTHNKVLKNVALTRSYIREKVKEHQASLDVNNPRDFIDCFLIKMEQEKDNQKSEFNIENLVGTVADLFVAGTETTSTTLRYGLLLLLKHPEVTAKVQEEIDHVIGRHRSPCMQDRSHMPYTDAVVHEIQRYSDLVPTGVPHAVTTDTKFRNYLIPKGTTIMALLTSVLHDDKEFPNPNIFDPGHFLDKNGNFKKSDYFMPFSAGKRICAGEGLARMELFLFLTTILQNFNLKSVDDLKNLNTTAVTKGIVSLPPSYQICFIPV
Protocol: as §1, §2, §3, §4, §5, §6

[8] = coadministration of tucatinib with metformin compared to metformin alone
[9] = Metformin with tucatinib (Test), n = 17

Chain of CYP3A4 (P08684 whole entry): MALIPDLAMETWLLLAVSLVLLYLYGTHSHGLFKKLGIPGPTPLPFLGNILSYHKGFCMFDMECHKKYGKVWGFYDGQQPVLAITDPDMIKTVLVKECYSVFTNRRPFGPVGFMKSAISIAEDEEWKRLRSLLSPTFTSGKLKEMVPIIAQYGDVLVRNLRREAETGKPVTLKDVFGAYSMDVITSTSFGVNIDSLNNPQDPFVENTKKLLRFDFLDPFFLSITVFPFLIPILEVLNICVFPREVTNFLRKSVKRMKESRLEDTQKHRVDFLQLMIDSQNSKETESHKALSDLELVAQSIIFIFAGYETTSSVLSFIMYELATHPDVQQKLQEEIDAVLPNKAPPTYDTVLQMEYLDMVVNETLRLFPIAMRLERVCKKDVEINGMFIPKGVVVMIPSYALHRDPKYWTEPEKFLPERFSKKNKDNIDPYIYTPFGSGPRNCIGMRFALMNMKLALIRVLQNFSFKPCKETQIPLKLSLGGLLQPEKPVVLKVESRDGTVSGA
Chain of CYP2C9 (P11712 whole entry): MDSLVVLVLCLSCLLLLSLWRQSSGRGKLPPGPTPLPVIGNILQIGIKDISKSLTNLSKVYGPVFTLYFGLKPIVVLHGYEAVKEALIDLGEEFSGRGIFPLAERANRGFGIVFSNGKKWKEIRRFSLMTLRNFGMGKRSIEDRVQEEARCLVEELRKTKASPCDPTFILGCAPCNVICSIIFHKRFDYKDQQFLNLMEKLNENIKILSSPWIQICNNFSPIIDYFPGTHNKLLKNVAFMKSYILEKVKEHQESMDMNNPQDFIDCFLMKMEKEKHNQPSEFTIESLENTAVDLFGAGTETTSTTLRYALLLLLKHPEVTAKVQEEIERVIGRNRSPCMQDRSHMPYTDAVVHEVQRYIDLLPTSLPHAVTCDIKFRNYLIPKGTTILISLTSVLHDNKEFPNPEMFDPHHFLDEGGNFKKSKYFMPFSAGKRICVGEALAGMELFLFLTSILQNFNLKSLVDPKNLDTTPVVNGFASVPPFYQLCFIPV
Chain of P-gp (P08183 whole entry): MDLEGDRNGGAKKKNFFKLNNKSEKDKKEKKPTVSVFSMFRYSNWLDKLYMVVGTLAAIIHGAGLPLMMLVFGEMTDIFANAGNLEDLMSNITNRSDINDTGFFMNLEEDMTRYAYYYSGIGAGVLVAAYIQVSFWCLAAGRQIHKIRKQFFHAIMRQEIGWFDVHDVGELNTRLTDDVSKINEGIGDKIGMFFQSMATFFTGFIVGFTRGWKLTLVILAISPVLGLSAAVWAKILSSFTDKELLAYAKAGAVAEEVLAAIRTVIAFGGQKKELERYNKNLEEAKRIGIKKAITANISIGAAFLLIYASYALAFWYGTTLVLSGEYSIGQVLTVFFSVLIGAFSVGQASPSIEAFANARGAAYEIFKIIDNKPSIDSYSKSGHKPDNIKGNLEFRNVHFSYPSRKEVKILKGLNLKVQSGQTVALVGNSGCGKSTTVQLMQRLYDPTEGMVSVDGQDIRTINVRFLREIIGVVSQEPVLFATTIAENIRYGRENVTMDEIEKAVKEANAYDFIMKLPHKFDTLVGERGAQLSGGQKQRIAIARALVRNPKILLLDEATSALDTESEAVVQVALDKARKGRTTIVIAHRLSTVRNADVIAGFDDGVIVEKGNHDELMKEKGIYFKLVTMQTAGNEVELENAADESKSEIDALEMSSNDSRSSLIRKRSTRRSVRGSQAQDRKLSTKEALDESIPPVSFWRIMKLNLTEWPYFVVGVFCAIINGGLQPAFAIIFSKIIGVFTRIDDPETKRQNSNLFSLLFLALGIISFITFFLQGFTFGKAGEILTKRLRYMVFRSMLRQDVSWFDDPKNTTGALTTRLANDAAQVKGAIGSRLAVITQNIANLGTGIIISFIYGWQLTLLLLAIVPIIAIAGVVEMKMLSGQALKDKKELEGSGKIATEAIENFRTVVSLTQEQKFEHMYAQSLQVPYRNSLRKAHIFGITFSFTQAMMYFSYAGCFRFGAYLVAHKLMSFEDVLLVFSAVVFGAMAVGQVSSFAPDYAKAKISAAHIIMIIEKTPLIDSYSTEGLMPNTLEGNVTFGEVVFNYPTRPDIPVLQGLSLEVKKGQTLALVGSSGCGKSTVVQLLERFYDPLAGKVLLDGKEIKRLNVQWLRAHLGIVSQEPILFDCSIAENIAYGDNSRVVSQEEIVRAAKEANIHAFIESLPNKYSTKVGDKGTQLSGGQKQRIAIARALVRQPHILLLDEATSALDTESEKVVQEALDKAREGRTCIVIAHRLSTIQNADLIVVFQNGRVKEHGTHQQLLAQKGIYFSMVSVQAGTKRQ

Compound: OCc1ncc2n1-c1ccc(Cl)cc1C(c1ccccc1F)=NC2 [1-hydroxymidazolam]
- Geometric LS mean ratio (90% CI), AUC0-∞ [1]: 1.02 (0.903, 1.16)
- Geometric LS mean ratio (90% CI), AUClast [1]: 0.945 (0.848, 1.05)
- Geometric LS mean ratio (90% CI), Cmax [1]: 0.593 (0.507, 0.694)
- Geometric mean MRAUC0-∞, decreased by [1]: approximately 82.8%
- Geometric mean MRCmax, decreased by [1]: ~80.4%

Compound: CCCCNC(=O)NS(=O)(=O)c1ccc(CO)cc1 [4-hydroxytolbutamide]
- Geometric LS mean ratio (90% CI), AUC0-∞ [2]: 0.918 (0.880, 0.958)
- Geometric LS mean ratio (90% CI), AUClast [2]: 0.900 (0.868, 0.934)
- Geometric LS mean ratio (90% CI), Cmax [2]: 0.881 (0.831, 0.934)

Compound: C[C@H]1O[C@@H](O[C@H]2[C@@H](O)C[C@H](O[C@H]3[C@@H](O)C[C@H](O[C@H]4CC[C@@]5(C)[C@H](CC[C@@H]6[C@@H]5C[C@@H](O)[C@]5(C)[C@@H](C7=CC(=O)OC7)CC[C@]65O)C4)O[C@@H]3C)O[C@@H]2C)C[C@H](O)[C@@H]1O [digoxin]
- Geometric LS mean ratio (90% CI), AUC0-∞ [3]: 1.46 (1.29, 1.66)
- Geometric LS mean ratio (90% CI), AUClast [3]: 1.53 (1.35, 1.74)
- Geometric LS mean ratio (90% CI), Cmax [3]: 2.35 (1.90, 2.90)

Compound: CC(=O)N(CC(O)CO)c1c(I)c(C(=O)NCC(O)CO)c(I)c(C(=O)NCC(O)CO)c1I (stereo not shown) [iohexol, reference compound]
- Mean iohexol PK parameters [4, 8]: similar
- aGFR estimated using the Jødal and Brøchner Mortensen equation (iohexol) ([4]; metformin alone): 94.99 mL/min/1.73 m^2
- aGFR estimated using the Jødal and Brøchner Mortensen equation (iohexol) ([4]; metformin plus tucatinib): 94.56 mL/min/1.73 m^2

Compound: CN(C)C(=N)N=C(N)N [metformin]
- Plasma metformin CL/F, arithmetic mean (CV %) ([5]; Metformin + tucatinib 300 mg bid at steady state, Day 8, N = 17): 77.4 L/h
- Plasma metformin CL/F, arithmetic mean (CV %) ([5]; Metformin + tucatinib 300 mg bid at steady state, Day 8, N = 17, listed as Metformin): 77.4 (34.9) L/h
- Plasma metformin CL/F, arithmetic mean (CV %) ([5]; Metformin alone, 850 mg oral, Day 1, N = 17): 105.4 L/h
- Plasma metformin CL/F, arithmetic mean (CV %) ([5]; Metformin alone, 850 mg oral, Day 1, N = 17, listed as Metformin): 105.4 (26.7) L/h
- AUC0-last, geometric least-squares (LS) mean [5, 9]: 11054 ng·h/mL
- Cmax, geometric least-squares (LS) mean [5, 9]: 1418 ng/mL
- Increase of arithmetic mean metformin AUC0-inf [5, 8]: 1.409 fold
- Increase of arithmetic mean metformin AUC0-last [5, 8]: 1.376 fold
- Increase of arithmetic mean metformin Cmax [5, 8]: 1.102 fold
- AUC ([6]; oral): 11600 ng·h/mL
- AUC ([6]; oral, 850 mg): 8330 ng·h/mL
- AUC(0-t) ([6]; oral, 850 mg): 8150 ng·h/mL
- Cmax ([6]; oral, 850 mg): 1310 ng/mL
- AUC(0-inf) ([6]; po, 850 mg): 8610 ng·h/mL
- AUC(0-t) ([6]; po, 850 mg): 8420 ng·h/mL
- Cmax ([6]; po, 850 mg): 1330 ng/mL
- Vd/F ([6]; po, 850 mg): 695 L

Compound: Cc1ncc2n1-c1ccc(Cl)cc1C(c1ccccc1F)=NC2 [midazolam]
- Geometric LS mean ratio (90% CI), AUC0-∞ [1]: 5.74 (5.05, 6.53)
- Geometric LS mean ratio (90% CI), AUClast [1]: 5.30 (4.65, 6.04)
- Geometric LS mean ratio (90% CI), Cmax [1]: 3.01 (2.63, 3.45)

Compound: CCOc1cc(CC(=O)N[C@@H](CC(C)C)c2ccccc2N2CCCCC2)ccc1C(=O)O [repaglinide]
- Geometric LS mean ratio (90% CI), AUC0-∞ [7]: 1.69 (1.51, 1.90)
- Geometric LS mean ratio (90% CI), AUClast [7]: 1.72 (1.55, 1.91)
- Geometric LS mean ratio (90% CI), Cmax [7]: 1.69 (1.37, 2.10)

Source: patent US20220193076A1, “METHODS OF TREATING BREAST CANCER WITH TUCATINIB” (Seagen Inc., priority 2019, published 2022)
